Measured values: patent US20110046131A1, “PURINES AS PKC-THETA INHIBITORS” (N.V. Organon and Pharmacopeia, LLC, priority 2006, published 2011)

Legend:
Type in all cases: biochemical
SGK kinase = target: T1, SGK kinase (Homo sapiens, UniProt O00141); test: IC50 for SGK kinase (selectivity); details: for IC50: read-out: IC50-SGK1
T1 sequence (O00141 1-431): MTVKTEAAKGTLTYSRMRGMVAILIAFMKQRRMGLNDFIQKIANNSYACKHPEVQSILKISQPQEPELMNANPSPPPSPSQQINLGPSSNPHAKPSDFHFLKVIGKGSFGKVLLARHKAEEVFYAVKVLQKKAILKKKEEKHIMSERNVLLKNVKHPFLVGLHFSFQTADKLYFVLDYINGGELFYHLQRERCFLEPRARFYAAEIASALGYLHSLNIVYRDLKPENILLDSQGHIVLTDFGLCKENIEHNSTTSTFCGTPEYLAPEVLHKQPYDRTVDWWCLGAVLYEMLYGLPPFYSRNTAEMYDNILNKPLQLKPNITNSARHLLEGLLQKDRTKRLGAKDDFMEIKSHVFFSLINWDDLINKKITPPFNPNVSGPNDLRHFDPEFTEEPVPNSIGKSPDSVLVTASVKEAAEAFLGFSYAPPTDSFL
Description: Entries identified with “1” had values above 250 nM; entries identified with “2” had values above 1 μM; entries identified with “3” had values above 10 μM.

PKCθ = target: T2, PKCθ (Homo sapiens, UniProt Q04759); test: Ki Pan Vera (PV) potency for PKCθ; details: Ki Pan Vera (PV) of PKCθ
T2 construct: purchased Pan Vera
Description: (§1) For Ki Pan Vera (PV) of PKCθ, entries identified with “A” had values below 100 nM; entries identified with “B” had values below 1 μM; and entries identified with “C” had values below 10 μM.

PKC delta = target: T3, PKC delta (Homo sapiens, UniProt Q05655); test: Ki Pan Vera (PV) potency for PKC delta; details: Ki Pan Vera (PV) of PKC delta
T3 construct: purchased Pan Vera
Description: [The source words this procedure for another target and reports this target under the same test.] as §1

PKC alpha = target: T4, PKC alpha (Homo sapiens, UniProt P17252); test: Ki Pan Vera (PV) potency for PKC alpha; details: Ki Pan Vera (PV) of PKC alpha
T4 construct: purchased Pan Vera
Description: [The source words this procedure for another target and reports this target under the same test.] as §1

T2 sequence (Q04759 whole entry): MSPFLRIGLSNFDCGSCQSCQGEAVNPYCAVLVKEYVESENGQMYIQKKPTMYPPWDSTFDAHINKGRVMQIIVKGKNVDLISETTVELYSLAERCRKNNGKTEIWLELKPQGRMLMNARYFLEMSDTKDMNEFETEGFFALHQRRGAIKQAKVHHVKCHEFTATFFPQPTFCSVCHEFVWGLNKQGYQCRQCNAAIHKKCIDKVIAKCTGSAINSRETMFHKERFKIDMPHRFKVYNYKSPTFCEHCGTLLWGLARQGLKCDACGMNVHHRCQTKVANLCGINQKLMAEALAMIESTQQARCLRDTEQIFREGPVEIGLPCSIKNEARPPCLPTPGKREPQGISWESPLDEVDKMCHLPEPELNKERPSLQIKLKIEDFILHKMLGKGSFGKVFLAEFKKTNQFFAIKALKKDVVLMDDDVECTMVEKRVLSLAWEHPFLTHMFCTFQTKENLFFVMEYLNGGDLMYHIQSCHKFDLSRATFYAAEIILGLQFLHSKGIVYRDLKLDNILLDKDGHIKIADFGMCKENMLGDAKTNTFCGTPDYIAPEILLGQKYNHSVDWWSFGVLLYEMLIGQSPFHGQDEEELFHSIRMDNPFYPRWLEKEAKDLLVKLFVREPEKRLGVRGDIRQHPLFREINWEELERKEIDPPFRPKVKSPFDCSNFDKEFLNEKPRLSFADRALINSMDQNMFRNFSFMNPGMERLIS
T3 sequence (Q05655 whole entry): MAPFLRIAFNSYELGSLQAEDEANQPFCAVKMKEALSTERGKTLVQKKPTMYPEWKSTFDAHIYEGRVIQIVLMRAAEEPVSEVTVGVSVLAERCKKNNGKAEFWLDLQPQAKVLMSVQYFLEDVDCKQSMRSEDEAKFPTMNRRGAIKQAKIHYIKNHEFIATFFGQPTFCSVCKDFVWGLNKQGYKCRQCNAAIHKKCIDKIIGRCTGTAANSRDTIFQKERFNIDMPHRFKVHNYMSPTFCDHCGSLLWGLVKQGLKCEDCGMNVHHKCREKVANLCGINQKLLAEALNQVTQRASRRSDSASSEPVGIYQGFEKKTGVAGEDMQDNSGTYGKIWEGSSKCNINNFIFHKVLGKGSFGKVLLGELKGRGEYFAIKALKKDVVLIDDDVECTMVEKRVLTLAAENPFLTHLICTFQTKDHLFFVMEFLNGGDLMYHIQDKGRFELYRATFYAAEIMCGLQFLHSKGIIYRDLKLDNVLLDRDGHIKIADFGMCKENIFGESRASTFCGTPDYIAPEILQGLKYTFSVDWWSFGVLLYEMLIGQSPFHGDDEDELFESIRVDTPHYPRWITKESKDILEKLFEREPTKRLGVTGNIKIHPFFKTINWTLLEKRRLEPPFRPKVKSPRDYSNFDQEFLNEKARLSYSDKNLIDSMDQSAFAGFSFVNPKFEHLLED

Fc1ccc(Cl)cc1CNc1ncc2nc(-c3c(Cl)cccc3Cl)n(C[C@@H]3CCCNC3)c2n1 [Compound 102]
IC50 (SGK kinase): > 10 µM | Ki (PKCθ): < 0.1 µM | Ki (PKC delta): > 1 µM | Ki (PKC alpha): > 1 µM

Fc1cccc(CNc2ncc3nc(-c4c(Cl)cccc4Cl)n(C[C@@H]4CCCNC4)c3n2)c1 [Compound 103]
Ki (PKCθ): < 0.1 µM | Ki (PKC delta): > 0.25 µM | Ki (PKC alpha): > 1 µM

Fc1ccc(F)c(CNc2ncc3nc(-c4c(Cl)cccc4Cl)n(C[C@@H]4CCCNC4)c3n2)c1 [Compound 104]
IC50 (SGK kinase): > 10 µM | Ki (PKCθ): < 0.1 µM | Ki (PKC delta): > 0.25 µM | Ki (PKC alpha): > 1 µM

Fc1ccc(CNc2ncc3nc(-c4c(Cl)cccc4Cl)n(C[C@@H]4CCCNC4)c3n2)cc1 [Compound 105]
IC50-SGK1 (SGK kinase): Inactive | Ki (PKCθ): < 0.1 µM | Ki (PKC delta): > 0.25 µM | Ki (PKC alpha): > 1 µM

Fc1ccc(Cl)cc1CNc1ncc2nc(-c3c(Cl)cccc3Cl)n(C[C@@H]3CCCNC3)c2n1 [Compound 106]
IC50-SGK1 (SGK kinase): Inactive | Ki (PKCθ): < 1 µM | Ki (PKC delta): > 1 µM | Ki (PKC alpha): > 10 µM

Clc1ccc(CNc2ncc3nc(-c4c(Cl)cccc4Cl)n(C[C@@H]4CCCNC4)c3n2)cc1Cl [Compound 107]
Ki (PKCθ): < 1 µM | Ki (PKC delta): > 1 µM | Ki (PKC alpha): > 10 µM

Fc1ccc(CNc2ncc3nc(-c4c(F)cccc4Cl)n(C[C@@H]4CCCNC4)c3n2)cc1Cl [Compound 108]
IC50-SGK1 (SGK kinase): Inactive | Ki (PKCθ): < 1 µM | Ki (PKC delta): > 1 µM | Ki (PKC alpha): > 1 µM

Fc1ccc(CNc2ncc3nc(-c4c(Cl)cccc4Cl)n(C[C@@H]4CCCNC4)c3n2)c(F)c1 [Compound 109]
IC50-SGK1 (SGK kinase): Inactive | Ki (PKCθ): < 0.1 µM | Ki (PKC delta): > 1 µM | Ki (PKC alpha): > 1 µM

Fc1ccccc1CNc1ncc2nc(-c3c(Cl)cccc3Cl)n(C[C@@H]3CCCNC3)c2n1 [Compound 110]
IC50 (SGK kinase): > 1 µM | Ki (PKCθ): < 0.1 µM | Ki (PKC delta): > 1 µM | Ki (PKC alpha): > 1 µM

Fc1ccccc1CNc1ncc2nc(-c3c(Cl)cccc3Cl)n(C[C@@H]3CCCNC3)c2n1 [Compound 111]
IC50-SGK1 (SGK kinase): Inactive | Ki (PKC alpha): > 1 µM

Clc1cccc(Cl)c1C1=Nc2cnc(NCc3ccsc3)nc2C1C[C@@H]1CCCNC1 (stereo partly shown) [Compound 114]
IC50-SGK1 (SGK kinase): Inactive

Fc1ccc(Cl)cc1CNc1ncc2nc(-c3c(F)cccc3Cl)n(C[C@@H]3CCCNC3)c2n1 [Compound 115]
IC50 (SGK kinase): > 10 µM | Ki (PKCθ): < 1 µM | Ki (PKC delta): > 1 µM | Ki (PKC alpha): > 10 µM

C[C@H](Nc1ncc2nc(-c3c(Cl)cccc3Cl)n(C[C@@H]3CCCNC3)c2n1)c1ccccc1F [Compound 116]
IC50-SGK1 (SGK kinase): Inactive | Ki (PKCθ): < 1 µM | Ki (PKC delta): > 1 µM | Ki (PKC alpha): > 10 µM

Fc1ccccc1CNc1ncc2nc(-c3c(Cl)cccc3Cl)n(CC3CCCNC3)c2n1 (stereo not shown) [Compound 117]
IC50-SGK1 (SGK kinase): Inactive | Ki (PKCθ): < 1 µM | Ki (PKC delta): > 1 µM | Ki (PKC alpha): > 1 µM

Fc1ccc(CNc2ncc3nc(-c4c(Cl)cccc4Cl)n(CCC4CCNCC4)c3n2)cc1F [Compound 118]
IC50 (SGK kinase): > 10 µM | Ki (PKCθ): < 1 µM | Ki (PKC delta): > 1 µM | Ki (PKC alpha): > 1 µM

Clc1cccc(Cl)c1-c1nc2cnc(NCc3cccs3)nc2n1C[C@@H]1CCCNC1 [Compound 119, (R)-8-(2,6-dichlorophenyl)-9-(piperidin-3-ylmethyl)-N-(thiophen-2-ylmethyl)-9H-purin-2-amine]
Ki (PKCθ): < 0.1 µM | Ki (PKC delta): > 1 µM | Ki (PKC alpha): > 1 µM

Fc1cccc(CNc2ncc3nc(-c4c(F)cccc4Cl)n(C[C@@H]4CCCNC4)c3n2)c1 [Compound 123]
Ki (PKCθ): < 1 µM | Ki (PKC delta): > 1 µM | Ki (PKC alpha): > 1 µM

Fc1cccc(Cl)c1-c1nc2cnc(NCc3ccc(Cl)c(Cl)c3)nc2n1C[C@@H]1CCCNC1 [Compound 132]
Ki (PKCθ): < 10 µM | Ki (PKC delta): > 1 µM | Ki (PKC alpha): > 10 µM

Clc1cccc(Cl)c1C1=Nc2cnc(NCc3nccs3)nc2C1C[C@@H]1CCCNC1 (stereo partly shown) [Compound 137]
IC50-SGK1 (SGK kinase): Inactive

Fc1ccc(CNc2ncc3nc(-c4c(Cl)cccc4Cl)n(CC4CCNC4)c3n2)cc1Cl (stereo not shown) [Compound 139]
Ki (PKCθ): < 1 µM | Ki (PKC delta): > 1 µM | Ki (PKC alpha): > 1 µM

Fc1ccc(CNc2ncc3nc(-c4c(Cl)cccc4Cl)n(C[C@H]4CCNC4)c3n2)c(F)c1 [Compound 140]
Ki (PKCθ): < 1 µM | Ki (PKC delta): > 1 µM | Ki (PKC alpha): > 1 µM

Fc1cccc(Cl)c1-c1nc2cnc(NCc3ccccc3)nc2n1C[C@@H]1CCCNC1 [Compound 145]
Ki (PKCθ): < 1 µM | Ki (PKC delta): > 1 µM | Ki (PKC alpha): > 1 µM

NC[C@H]1CC[C@H](n2c(-c3c(Cl)cccc3Cl)nc3cnc(NCc4ccccc4F)nc32)CC1 [Compound 149]
IC50 (SGK kinase): > 10 µM | Ki (PKCθ): < 1 µM | Ki (PKC delta): > 1 µM

Fc1cccc(CNc2ncc3nc(-c4ccccc4Cl)n(C[C@@H]4CCCNC4)c3n2)c1 [Compound 152]
Ki (PKCθ): < 1 µM | Ki (PKC delta): > 1 µM | Ki (PKC alpha): > 1 µM

Clc1cccc(CNc2ncc3nc(-c4c(Cl)cccc4Cl)n(CC4CCNC4)c3n2)c1 (stereo not shown) [Compound 157]
Ki (PKCθ): < 1 µM | Ki (PKC delta): > 1 µM | Ki (PKC alpha): > 1 µM

Fc1ccc(Cl)cc1CNc1ncc2nc(-c3c(Cl)cccc3Cl)n(CC3CCNC3)c2n1 (stereo not shown) [Compound 159]
Ki (PKCθ): < 1 µM | Ki (PKC delta): > 1 µM | Ki (PKC alpha): > 1 µM

Clc1ccc(CNc2ncc3nc(-c4ccccc4Cl)n(C[C@@H]4CCCNC4)c3n2)cc1Cl [Compound 165]
Ki (PKCθ): < 10 µM | Ki (PKC delta): > 1 µM | Ki (PKC alpha): > 10 µM

Fc1cccc(Cl)c1-c1nc2cnc(NCc3cccs3)nc2n1C[C@@H]1CCCNC1 [Compound 169]
Ki (PKCθ): < 1 µM | Ki (PKC delta): > 1 µM | Ki (PKC alpha): > 10 µM

NC[C@H]1CC[C@H](n2c(-c3ccccc3Cl)nc3cnc(NCc4ccccc4F)nc32)CC1 [Compound 175]
IC50-SGK1 (SGK kinase): Inactive | Ki (PKCθ): < 1 µM | Ki (PKC delta): > 1 µM

Cc1ccsc1CNc1ncc2nc(-c3c(Cl)cccc3Cl)n(C[C@@H]3CCCNC3)c2n1 [Compound 201]
IC50-SGK1 (SGK kinase): Inactive

Clc1cccc(Cl)c1-c1nc2cnc(NCc3cccs3)nc2n1CCC1CCNCC1 [Compound 203]
Ki (PKCθ): < 1 µM | Ki (PKC delta): > 1 µM | Ki (PKC alpha): > 10 µM

Fc1ccc(CNc2ncc3nc(-c4c(F)cccc4Cl)n(CC4CCNC4)c3n2)cc1Cl (stereo not shown) [Compound 204]
Ki (PKCθ): < 1 µM | Ki (PKC delta): > 1 µM | Ki (PKC alpha): > 10 µM

Fc1ccc(CNc2ncc3c(n2)C(CC2CNCCO2)C(c2c(F)cccc2Cl)=N3)cc1F (stereo not shown) [Compound 215]
IC50-SGK1 (SGK kinase): Inactive

Fc1ccccc1CNc1ncc2nc(-c3c(Cl)cccc3Cl)n(C[C@@H]3CCNC3)c2n1 [Compound 220]
Ki (PKCθ): < 1 µM | Ki (PKC delta): > 1 µM | Ki (PKC alpha): > 1 µM

Fc1ccccc1CNc1ncc2nc(-c3c(Cl)cccc3Cl)n(C3CCNCC3)c2n1 [Compound 221]
IC50-SGK1 (SGK kinase): Inactive

NCC1CCC(n2c(-c3cccc(F)c3F)nc3cnc(NCc4ccccc4F)nc32)CC1 (stereo not shown) [Compound 222]
IC50-SGK1 (SGK kinase): Inactive

C[C@H](Nc1ncc2nc(-c3c(F)cccc3Cl)n(C[C@H]3CCNC3)c2n1)c1ccccc1F [Compound 226]
Ki (PKCθ): < 1 µM | Ki (PKC delta): > 1 µM | Ki (PKC alpha): > 1 µM

Fc1ccccc1CNc1ncc2nc(-c3cccc(F)c3F)n(CCC3CCNCC3)c2n1 [Compound 238]
Ki (PKCθ): < 1 µM | Ki (PKC delta): > 1 µM | Ki (PKC alpha): > 1 µM

Clc1cccc(Cl)c1-c1nc2cnc(NCc3ccccn3)nc2n1CC1CCNC1 (stereo not shown) [Compound 262]
Ki (PKCθ): < 1 µM | Ki (PKC delta): > 1 µM | Ki (PKC alpha): > 1 µM
